Here are results for seven compounds from article PMC10530720, “Antimicrobial Activity and Toxicity of Newly Synthesized 4-[4-(benzylamino)butoxy]-9H-carbazole Derivatives” (International Journal of Molecular Sciences, 2023).

In brackets after ≈: the same amount, converted by molar mass. Read-outs that look alike come from different tables or passages of the source. Some results are limits rather than exact numbers.

Data set [1] has as its system Staphylococcus epidermidis ATCC 12228. The data set can be described thus: Broth microdilution (CLSI), growth, MIC and MBC. Type of data set: cell-based. The following applies: for MBC/MFC: S. epidermidis (MBC); for MIC: Staphylococcus epidermidis, ATCC12228, S. epidermidis, 24 h at 37 °C.
The test system of data set [2] is Candida albicans ATCC 10231. In words: Broth microdilution (CLSI), growth, MIC and MFC. Type of data set: cell-based. The following applies: for MBC/MFC: C. albicans (MFC); for MIC: ATCC10231, C. albicans, 48 h at 37 °C. For orientation: Broth dilution looks for growth in wells or tubes with falling amounts of substance.
For data set [3], the system named is Staphylococcus aureus ATCC 29213. The data set can be described thus: Broth microdilution (CLSI), growth, MIC and MBC. The format is cell-based. The settings on record: for MBC/MFC: S. aureus (MBC); for MIC: ATCC29213, S. aureus, 24 h at 37 °C.
Data set [4] deals with Escherichia coli ATCC 25922. In words: Broth microdilution (CLSI), growth, MIC and MBC. Type of data set: cell-based. The following applies: for MBC/MFC: E. coli (MBC); for MIC: Escherichia coli, ATCC25922, E. coli, 24 h at 37 °C; for antimicrobial properties against E. coli, ranking in words: among compounds 1–10.
Data set [5] deals with Aspergillus flavus ATCC 9643. In words: Broth microdilution (CLSI), growth, MIC and MFC. Type of data set: cell-based. The following applies: for MBC/MFC: A. flavus (MFC); for MIC: Aspergillus flavus, ATCC9643, A. flavus, 48 h at 37 °C.
Data set [6] concerns Pseudomonas aeruginosa ATCC 15442. In words: Broth microdilution (CLSI), growth, MIC and MBC. The following applies: for MBC/MFC: P. aeruginosa (MBC); for MIC: Pseudomonas aeruginosa, ATCC15442, P. aeruginosa, 24 h at 37 °C. The format is cell-based.
The subject of data set [7] is human fibroblast BJ ATCC CRL-2522 cell line. The data set can be described thus: Cytotoxic activity, MTT. Type of data set: cell-based. The settings on record: for toxicity to human fibroblasts, ranking in words: among compounds 1–10. The method, then: The cytotoxic properties of the tested compounds were examined using the human fibroblast BJ ATCC CRL-2522 cell line. The fibroblasts, with a final density of 1 × 10^5 cells per well, were suspended in EMEM medium containing FBS (10%) and antibiotics (penicillin, 100 IU/mL and streptomycin, 100 µg/mL), and incubated in 96-well microplates for 24 h in a humidified atmosphere with 5% CO2 at 37 °C. Next, the EMEM medium was replaced with a fresh medium, with the addition of the tested compounds in the concentration range of 1–64 µg/mL. Cell cultures without the tested derivatives were also prepared, as control samples. All the samples were incubated again for 24 h, under the same conditions. Then, the growth medium was removed from above the fibroblasts, and MTT solution (500 µg/mL) was added to each well. The plates were incubated for 4 h under the same conditions. The MTT solution was removed, and the wells were refilled with 50 µL of DMSO, to dissolve the formazan crystals produced. The spectrophotometric measurement of the samples was carried out at λ = 550 nm, using a SpectraMax i3x Multi-Mode Microplate Reader (Molecular Devices Ltd., Wokingham, UK).
The cell viability was calculated as a percentage of the control samples untreated with the tested compounds with a standard deviation. The experiment with n = 4 was carried out in four independent repetitions.

Data set [8] deals with S. aureus. Also on record: method as in PMID 34884610. The settings on record: cited from earlier work.
Data set [9] has as its system E. coli. More on the design: method as in PMID 34884610. The settings on record: highest tested concentration; cited from earlier work.
Data set [10] has as its system S. aureus. More on the design: method as in Salih et al. 12. The settings on record: ref Salih et al. 12; cited from earlier work.
For data set [11], the system named is E. coli. More on the design: method as in Salih et al. 12. The settings on record: ref Salih et al. 12; cited from earlier work.
The next data set deals with A. fumigatus. More on the design: method as in PMID 18570365. The settings on record: cited from earlier work.
The next data set has as its system C. albicans. More on the design: method as in PMID 18570365. The following applies: cited from earlier work.

For orientation: MIC means the lowest concentration that inhibits growth of the organism. What is called melting point is the temperature of the solid-liquid transition. As for `Br.Fc1cccc(CNCCCCOc2cccc3[nH]c4ccccc4c23)c1` [Compound 7, 4-[4-(3-fluorophenylmethylamino)butoxy]-9H-carbazole hydrobromide], the melting point lay in the range of 181 to 183 °C. Further, in data set [1], the MBC/MFC is reported as 64 µg/mL and the lowest concentration to inhibit growth (MIC) was 32 µg/mL. In [2], the MBC/MFC was >64 µg/mL. Besides, the MIC in data set [2] (Candida albicans) was > 64 µg/mL. For the same compound, the MBC/MFC in [3] is 64 µg/mL. Besides, the lowest concentration to inhibit growth in data set [3] (Staphylococcus aureus) (MIC) was 32 µg/mL. In data set [4], the MBC/MFC was >64 µg/mL and the MIC is > 64 µg/mL. In [5], the MBC/MFC was >64 µg/mL and the MIC is > 64 µg/mL. Besides, in data set [6], the MBC/MFC is given as >64 µg/mL and the minimum inhibitory concentration (MIC) was > 64 µg/mL.
In turn, `Br.C[C@@H](NCCCCOc1cccc2[nH]c3ccccc3c12)c1ccccc1` [Compound 9, (R)-4-[4-(1-phenylethylamino)butoxy]-9H-carbazole hydrobromide] yielded a melting point of 92 to 96 °C. In data set [1], this compound gave an MBC/MFC of 64 µg/mL and an MIC of 32 µg/mL. For the same compound, the MBC/MFC in data set [2] was >64 µg/mL. Further, the minimum inhibitory concentration (MIC) in [2] (Candida albicans) is > 64 µg/mL. Besides, the “decrease in cell viability” value in data set [7] (4 µg/mL, human fibroblasts, 24 h) was 40%. Further, the “toxicity to human fibroblasts, ranking in words” value in data set [7] is recorded as “highest toxicity”. This compound gave an MBC/MFC in data set [3] of 64 µg/mL. In data set [3] (Staphylococcus aureus), this compound showed an MIC of 32 µg/mL. In data set [4], the MBC/MFC was >64 µg/mL and the minimal inhibitory concentration (MIC) was > 64 µg/mL. In data set [5], the MBC/MFC was >64 µg/mL and the MIC was > 64 µg/mL. In [6], the MBC/MFC is reported as >64 µg/mL and the minimal inhibitory concentration (MIC) was > 64 µg/mL.
What is called inhibition is the change of the read-out against control, counted positive when it falls. In turn, `Br.Fc1ccc(CNCCCCOc2cccc3[nH]c4ccccc4c23)cc1` [Compound 8, 4-[4-(4-fluorophenylmethylamino)butoxy]-9H-carbazole hydrobromide] had a melting point of 203 to 206 °C. In [1], this compound came in with an MBC/MFC of 64 µg/mL and a minimal inhibitory concentration (MIC) of 32 µg/mL. For the same compound, in data set [2], the MBC/MFC was >64 µg/mL. In addition, the minimum inhibitory concentration (MIC) in data set [2] (Candida albicans) was > 64 µg/mL. For the same compound, the MBC/MFC in data set [3] is reported as 64 µg/mL. For the same compound, the inhibition at 16 µg/mL in data set [3] (Staphylococcus aureus, ATCC29213, 16 µg/mL, read-out: inhibition of S. aureus growth) was 65%. For the same compound, 32 µg/mL was the least that counted as inhibitory in [3] (Staphylococcus aureus) (MIC). In [4] (64 µg/mL (highest tested concentration)), the “reduction in E. coli growth” value is listed as 50%. In [4], the MBC/MFC is >64 µg/mL; the minimal inhibitory concentration (MIC) was > 64 µg/mL; the “antimicrobial properties against E. coli, ranking in words” value is recorded as “strongest antimicrobial properties”. Moreover, in data set [5], the MBC/MFC is >64 µg/mL and the minimal inhibitory concentration (MIC) was > 64 µg/mL. Further, in data set [6], the MBC/MFC was >64 µg/mL and the minimum inhibitory concentration (MIC) is > 64 µg/mL.
On to `c1ccc(CNCCCCOc2cccc3[nH]c4ccccc4c23)cc1` [parent compound, 4-[4-(benzylamino)butoxy]-9H-carbazole], for which the “reduction in bacterial growth (S. aureus)” value in the data set with S. aureus [8] (20 µg/mL) is 22%. In addition, the MIC with S. aureus [8] (S. aureus) is 30 µg/mL (≈ 87.1 µM). The “inhibition of E. coli growth” value in the data set with E. coli [9] was 10%.
Take `Br.Fc1ccccc1CNCCCCOc1cccc2[nH]c3ccccc3c12` [Compound 6, 4-[4-(2-fluorophenylmethylamino)butoxy]-9H-carbazole hydrobromide]: the melting point was 180 to 182 °C. Also, in data set [1], the MIC is 64 µg/mL. Also, the MBC/MFC in data set [2] was >64 µg/mL. Moreover, the inhibition at 64 µg/mL in data set [2] (Candida albicans, ATCC10231, 64 µg/mL (highest tested concentration), read-out: C. albicans growth inhibition) was 15%. The minimum inhibitory concentration (MIC) in data set [2] (Candida albicans) is > 64 µg/mL. The compound further had a minimal inhibitory concentration (MIC) in data set [3] (Staphylococcus aureus) of 64 µg/mL. In [4], the MBC/MFC was >64 µg/mL; the MIC was > 64 µg/mL; the “antimicrobial properties against E. coli, ranking in words” value was “weakest antimicrobial activity”. For the same compound, in data set [5], the MBC/MFC was >64 µg/mL and the MIC was > 64 µg/mL. Further, in data set [6], the MBC/MFC is >64 µg/mL and the MIC was > 64 µg/mL.
As to `CC1=NN(c2ccccc2)C(=O)C1=NNNC(=O)Cn1c2ccccc2c2ccccc21` [derivative 8, (4-[3-(9H-Carbazol-9-yl-acetyl)triazanylidene]-5-methyl-2-phenyl-2,4-dihydro-3H-pyrazol-3-one)], the MIC in the data set with S. aureus [10] is 1.1 µg/mL (≈ 2.59 µM); in the data set with E. coli [11], 6.4 µg/mL (≈ 15.1 µM); in the data set on A. fumigatus, 10.3 µg/mL (≈ 24.3 µM); in the data set on C. albicans it was 9.6 µg/mL (≈ 22.6 µM).
For `Fc1ccccc1CNCCCCOc1cccc2[nH]c3ccccc3c12` [Compound 1, 4-[4-(2-fluorophenylmethylamino)butoxy]-9H-carbazole], the melting point lay in the range of 179 to 181 °C. Moreover, the lowest concentration to inhibit growth in data set [1] (MIC) was 64 µg/mL (≈ 177 µM). Besides, the MBC/MFC in data set [2] was >64 µg/mL. The MIC in data set [2] (Candida albicans) was > 64 µg/mL. Further, the “reduction of cell viability” value in data set [7] (32 µg/mL, human fibroblasts, 24 h) is “about 60%”. Besides, in [7], the “toxicity to human fibroblasts, ranking in words” value is on record as “least toxic”. Further, the MIC in data set [3] (Staphylococcus aureus) came out at 64 µg/mL (≈ 177 µM). Further, in data set [4], the MBC/MFC is >64 µg/mL and the MIC is > 64 µg/mL. In [5], the MBC/MFC is >64 µg/mL and the minimal inhibitory concentration (MIC) was > 64 µg/mL. Besides, in [6], the MBC/MFC is listed as >64 µg/mL and the MIC is > 64 µg/mL.
